Data: ChEMBL document CHEMBL1201862, “PubChem BioAssay data set” (2004)
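Results reflect a 48-hour exposure of cells in 96-well plates to compound at five concentrations. GI50 = concentration required for 50% inhibition of growth.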 Calls of active or inactive are those of the source. No stated cut-off is given here; in the data, active = GI50 up to about 1.1 µM and inactive = higher.

Legend:
Test in all cases: DTP human tumour cell line panel, 48 h
[1] = system: A549
[2] = system: BT-549
[3] = system: CCRF-CEM
[4] = system: COLO 205
[5] = system: HL-60
[6] = system: HOP-92
[7] = system: MDA-MB-231
[8] = system: MDA-MB-435
[9] = system: NCI/ADR-RES
[10] = system: OVCAR-3
[11] = system: OVCAR-8
[12] = system: RPMI-8226
[13] = system: RXF 393
[14] = system: SF-268
[15] = system: SK-OV-3
[16] = system: SW-620
[17] = system: T47D
[18] = system: UACC-257
[19] = system: UO-31
[20] = system: Hs-578T

Measured: GI50

COc1ccccc1/N=C1\SCCN1C(=S)Nc1ccc(S(=O)(=O)/N=C/N(C)C)cc1
inactive: [1] > 100 µM | [2] 21.9 µM | [3] 38.3 µM | [4] 28.6 µM | [5] 27.4 µM | [6] 27.9 µM | [7] > 100 µM | [8] 24.9 µM | [9] 45 µM | [10] 44 µM | [11] 35.2 µM | [12] 21.6 µM | [13] 16.6 µM | [14] 22.1 µM | [15] > 100 µM | [16] 44.9 µM | [17] 25.8 µM | [18] 36.1 µM | [19] 38.5 µM

CC(C1CCCC1=O)C1CCCC1=O (centres undefined)
inactive: [1] > 100 µM | [2] > 100 µM | [3] > 100 µM | [4] > 100 µM | [5] > 100 µM | [20] 92 µM | [7] > 100 µM | [9] > 100 µM | [11] > 100 µM | [13] > 100 µM | [14] > 100 µM | [15] > 100 µM | [16] > 100 µM | [17] > 100 µM | [18] > 100 µM | [19] > 100 µM

O=C(c1cccs1)N(C(=O)N1CCC(c2ccccc2)CC1)c1ccccc1
inactive: [2] 27 µM | [3] 95.5 µM | [4] 27.2 µM | [5] 28.8 µM | [20] 27.5 µM | [7] > 100 µM | [8] 29.4 µM | [9] 24.8 µM | [10] 53.6 µM | [11] 39.4 µM | [12] 12.6 µM | [13] 16.8 µM | [14] 73.6 µM | [15] 88.3 µM | [16] 51.5 µM | [17] 26.1 µM | [18] 40 µM | [19] 18 µM

C=C(C)C1CC(=O)C(C)=C(O)C1 (centres undefined)
inactive: [1] > 100 µM | [2] > 100 µM | [3] > 100 µM | [4] > 100 µM | [5] > 100 µM | [20] > 100 µM | [7] > 100 µM | [9] > 100 µM | [11] > 100 µM | [14] > 100 µM | [15] > 100 µM | [16] > 100 µM | [17] > 100 µM | [18] > 100 µM | [19] > 100 µM

CCOc1nc2sc3c(c2c(=O)n1CCSSCCn1c(OCC)nc2sc4c(c2c1=O)CCCC4)CCCC3
inactive: [1] > 100 µM | [2] > 100 µM | [4] > 100 µM | [20] > 100 µM | [7] > 100 µM | [8] > 100 µM | [9] > 100 µM | [10] > 100 µM | [11] 67.8 µM | [12] > 100 µM | [14] > 100 µM | [15] > 100 µM | [16] > 100 µM | [17] > 100 µM | [18] > 100 µM | [19] > 100 µM
